The text below walks through data of US20050032807A1, “Methods of treating inflammatory diseases with ammonium salts of ornitihine derivatives” (priority 2003, published 2005).

Molecules are shown by their SMILES.

Data set [1] has as its system cell growth in culture. As to conditions: Rosowsky et al., J. Med. Chem. 29, 655-660 (1986); cited from earlier work.
The subject of data set [2] is folylpolyglutamate synthetase (FPGS). The settings on record: Rosowsky et al., J. Med. Chem. 29, 655-660 (1986); cited from earlier work.
Data set [3] concerns the target T1, dihydrofolate reductase (DHFR) (Mus musculus, UniProt P00375).
T1 sequence (P00375 1-187): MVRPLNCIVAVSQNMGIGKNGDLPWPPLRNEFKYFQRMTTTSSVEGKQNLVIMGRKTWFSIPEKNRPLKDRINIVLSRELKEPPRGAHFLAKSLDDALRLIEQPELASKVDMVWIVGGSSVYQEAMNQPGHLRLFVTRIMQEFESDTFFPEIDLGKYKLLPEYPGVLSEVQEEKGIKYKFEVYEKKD
As to conditions: Rosowsky et al., J. Med. Chem. 29, 655-660 (1986); cited from earlier work.

The conditions of data set [4]: lyophilization of the dilute ammonium hydroxide solution to the ammonium salt.

In the case of `NCCC[C@H](NC(=O)c1ccc(NCc2cnc3nc(N)nc(N)c3n2)cc1)C(=O)O` [APA-L-Orn, N^α-(4-amino-4-deoxypteroyl)-L-ornithine], the “inhibition of cell growth in culture” value in data set [1] was “relatively inactive”. For the same compound, the “inhibition of folylpolyglutamate synthetase (FPGS)” value in data set [2] is “potent inhibitor”. The “inhibition of dihydrofolate reductase (DHFR)” value in data set [3] was “potent inhibitor”.

For `N.N.Nc1nc(N)c2nc(CNc3ccc(C(=O)N[C@@H](CCCNC(=O)c4ccccc4C(=O)O)C(=O)O)cc3)cnc2n1` [compound 8, N^α-(4-Amino-4-deoxypteroyl)N^δ-hemiphthaloyl-L-ornithine ammonium salt], the product decomposition entry in data set [4] is “minimal”.
